Measurements reported in patent publication US20240425478A1, “CYCLOPENTYLPYRAZOLE CDK2 INHIBITORS” (Genentech, Inc., priority 2021, published 2024).
pIC50, pKi: −log10 of the molar value. Where two headings read alike, the source gives them in different places.

Experiments:
[1] = target: T1, Cyclin Dependent Kinase 1/Cyclin A2 (CDK1-cycA2) (Homo sapiens, UniProt P06493); assay: CDK1-cycA2 TR-FRET (Lance) enzyme assay; type: biochemical; conditions: Table O, enzymatic assay
T1 construct: purchased ProQinase 0134-0054-1
T1 sequence (P06493 whole entry): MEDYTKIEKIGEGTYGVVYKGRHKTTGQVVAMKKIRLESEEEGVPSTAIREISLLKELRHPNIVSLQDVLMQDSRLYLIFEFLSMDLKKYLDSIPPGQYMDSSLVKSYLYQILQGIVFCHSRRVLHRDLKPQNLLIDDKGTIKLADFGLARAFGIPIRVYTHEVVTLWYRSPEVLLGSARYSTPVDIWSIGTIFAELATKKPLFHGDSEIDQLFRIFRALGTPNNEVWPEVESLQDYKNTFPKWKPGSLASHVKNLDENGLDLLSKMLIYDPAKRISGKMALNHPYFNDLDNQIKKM
T1 sequence (P20248 whole entry partner): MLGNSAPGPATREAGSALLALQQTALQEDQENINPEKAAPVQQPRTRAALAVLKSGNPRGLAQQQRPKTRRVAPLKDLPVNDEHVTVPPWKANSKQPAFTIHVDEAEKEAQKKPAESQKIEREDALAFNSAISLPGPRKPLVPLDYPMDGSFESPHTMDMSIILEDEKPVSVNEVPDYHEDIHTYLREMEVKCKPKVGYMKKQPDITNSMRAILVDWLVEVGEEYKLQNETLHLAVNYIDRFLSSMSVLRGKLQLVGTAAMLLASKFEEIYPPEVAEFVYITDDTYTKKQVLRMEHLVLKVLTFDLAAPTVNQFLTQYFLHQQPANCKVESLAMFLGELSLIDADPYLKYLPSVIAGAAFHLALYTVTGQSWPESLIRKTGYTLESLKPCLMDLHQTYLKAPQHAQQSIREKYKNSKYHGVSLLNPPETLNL
In short: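 Human CDK1/cyclin A2 pre-incubated 30 min with compound dose responses in 50 mM HEPES pH 7.5, 10 mM MgCl2, 2 mM TCEP, 0.05% BGG, 0.01% Brij 35. Reaction quenched with EDTA (15 mM final); TR-FRET readout using Eu-anti-phospho-4E-BP1, acceptor/donor ratio. Inhibition constants from Morrison equation.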

[2] = target: T2, Cyclin Dependent Kinase 2/Cyclin E1 (CDK2-cycE1) (Homo sapiens, UniProt P24941); assay: CDK2-cycE1 TR-FRET (LANCE) enzyme assay; type: biochemical; conditions: for FS CDK1/CDK2 / FS CDK4/CDK2: fold selectivity; for increased fold-selectivity CDK4/CDK2 over Comparator C: (+) sign after FS CDK4/CDK2; for increased fold-selectivity CDK1/CDK2 over Comparator C: (+) sign after FS CDK1/CDK2;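 for improvement in potency against CDK2 (Ki) over Comparator C: fold lower CDK2 Ki than comparator c (Ki 0.032 µM)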
T2 construct: purchased ProQinase 0050-0055-1
In short: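 Compound dose responses pre-incubated 30 min with CDK2-cycE1 in 50 mM HEPES pH 7.5, 10 mM MgCl2, 2 mM TCEP, 0.05% BGG, 0.01% Brij 35. Reaction quenched with EDTA (15 mM final), phospho-MBP detected by Eu-anti-phospho-MBP TR-FRET (acceptor/donor ratio). Inhibition constants from Morrison equation.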

[3] = target: T3, Cyclin Dependent Kinase 4/Cyclin D3 (CDK4-cycD3) (Homo sapiens, UniProt P11802); assay: CDK4-cycD3 TR-FRET (LANCE) enzyme assay; type: biochemical; conditions: Table O, enzymatic assay
T3 construct: purchased Carna Biosciences 04-105
T3 sequence (P11802 whole entry): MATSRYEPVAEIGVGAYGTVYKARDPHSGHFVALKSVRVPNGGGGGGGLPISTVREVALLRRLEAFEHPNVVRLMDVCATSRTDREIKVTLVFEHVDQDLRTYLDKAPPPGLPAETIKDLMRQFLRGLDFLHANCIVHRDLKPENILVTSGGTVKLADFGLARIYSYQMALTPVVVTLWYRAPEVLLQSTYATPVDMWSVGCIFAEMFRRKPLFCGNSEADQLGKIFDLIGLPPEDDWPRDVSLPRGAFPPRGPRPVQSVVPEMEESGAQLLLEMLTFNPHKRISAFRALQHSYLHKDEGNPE
T3 sequence (P30281 whole entry partner): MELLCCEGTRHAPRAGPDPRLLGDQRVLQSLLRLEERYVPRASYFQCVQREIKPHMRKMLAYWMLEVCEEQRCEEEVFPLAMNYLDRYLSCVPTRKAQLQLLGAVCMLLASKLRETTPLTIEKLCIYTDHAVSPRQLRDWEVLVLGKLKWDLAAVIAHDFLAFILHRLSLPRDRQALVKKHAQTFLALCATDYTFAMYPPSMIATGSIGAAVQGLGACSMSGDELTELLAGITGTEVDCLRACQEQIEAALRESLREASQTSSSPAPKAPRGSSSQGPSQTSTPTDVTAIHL
In short: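 Compound dose responses pre-incubated 30 min with enzyme mix in 50 mM HEPES pH 7.5, 10 mM MgCl2, 2 mM TCEP, 0.05% BGG, 0.01% Brij 35. Reaction quenched with EDTA (15 mM final); Eu-anti-phospho-4E-BP1 TR-FRET detection, acceptor/donor ratio. Ki derived by Morrison equation.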

[4] = system: OVISE (JCRB1043, CCNE1-amplified); assay: OVISE EdU incorporation cell proliferation assay (CDK2-dependent); type: cell-based; conditions: for pIC50: cellular assay, read-out: CDK2 OVISE IC50; for FS SKOV-3/OVISE / FS p-H3/OVISE: fold selectivity; for FS p-H3/OVISE: cellular p-H3 IC50 over OVISE IC50; for increased fold-selectivity SKOV-3/OVISE over Comparator C: (+) sign after FS SKOV-3/OVISE; for improvement in CDK2 OVISE cell potency over Comparator C: in brackets after OVISE IC50, Comparator C 5.5 μM
In short: (§1)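 Cells in RPMI/10% FBS dosed with compound (0.5% DMSO final) for 16 h at 37 °C, 5% CO2, then EdU 0.5 μM final for 8 h before fixation and imaging. IC50 from 4-parameter logistic fit of EdU-positive cell fraction versus dose.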

SKOV-3 (ATCC HTB-77) = assay: SKOV-3 EdU incorporation cell proliferation assay (CDK4/6-dependent); type: cell-based; conditions: Homo sapiens, cellular assay, read-out: CDK4/6 SKOV-3 IC50
In short: as §1

HCT116 cells = assay: p-H3 HCT-116 mitotic release cell proliferation assay (cellular CDK1); type: cell-based; conditions: Homo sapiens, HCT-116; Table O, cellular assay; read-out: CDK1 p-H3 IC50
In short: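 HCT116 cells arrested 16 h with 500 nM nocodazole, then exposed to compound for 4 h at 37 °C (0.1% DMSO). Lysates read by HTRF/FRET with donor and acceptor phospho-Histone H3 (Ser10) antibodies, ≥2 h at room temperature; CDK1 inhibition seen as loss of p-H3 on mitotic release.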

[5] = Table O, enzymatic assay, read-out: CDK2 Ki
[6] = Table O, enzymatic CDK1 Ki over CDK2 Ki
[7] = Table O, enzymatic CDK4 Ki over CDK2 Ki
[8] = Table Q, enzymatic assay, read-out: CDK2 Ki
[9] = Table O, cellular SKOV-3 IC50 over OVISE IC50
[10] = read-out: CDK2 activity / potency (enzymatic assay)

Structure (SMILES) | pKi [1] | improvement in potency against CDK2 (Ki) over Comparator C [2] [fold] | pKi [2, 5] | FS CDK1/CDK2 [2, 6] | FS CDK4/CDK2 [2, 7] | increased fold-selectivity CDK4/CDK2 over Comparator C ([2]; Table Q) | pKi [2, 8] | FS CDK1/CDK2 ([2]; Table Q, enzymatic) | FS CDK4/CDK2 ([2]; Table Q, enzymatic) | pKi [3] | pIC50 ([4]; Table O) | FS SKOV-3/OVISE [4, 9] | FS p-H3/OVISE ([4]; Table O) | increased fold-selectivity SKOV-3/OVISE over Comparator C ([4]; Table Q) | FS SKOV-3/OVISE ([4]; Table Q, cellular) | improvement in CDK2 OVISE cell potency over Comparator C ([4]; Table Q) [fold] | pIC50 (SKOV-3 (ATCC HTB-77); SK-OV-3, Table O) | pIC50 (SKOV-3 (ATCC HTB-77); SK-OV-3, Table Q) | pIC50 (HCT116 cells) | pKi [2, 10] | also measured
Cc1nccc(Nc2cc([C@H]3CC[C@@H](OC(=O)NC(C)C)C3)[nH]n2)n1 [Example 2O, (1R,3S)-3-(3-((2-methylpyrimidin-4-yl)amino)-1H-pyrazol-5-yl)cyclopenty1 isopropylcarbamate] | 7.62 | 37 | 9.06 | 28 | 290 | (+) (The (+) sign in Table Q signifies desirable increased fold-selectivity of the exemplary compounds over Comparator C) | 9.06 | 28 | 290 | 6.60 | 7.15 | 56 | 0.31 | (+) (The (+) sign in Table Q signifies desirable increased fold-selectivity of the exemplary compounds over Comparator C) | 56 | 78.6 | 5.41 | 5.41 | 7.66 | – | –
CC(C)NC(=O)O[C@@H]1CC[C@H](c2cc(Nc3cncc(C(F)(F)F)n3)n[nH]2)C1 [Example 2R, (1R,3S)-3-(3-((6-(trifluoromethyl)pyrazin-2-yl)amino)-1H-pyrazol-5-yl)cyclopentyl isopropylcarbamate] | 9.40 | 320 | > 10.00 | 6.3 | 140 | (+) (The (+) sign in Table Q signifies desirable increased fold-selectivity of the exemplary compounds over Comparator C) | > 10.00 | 6.3 | 140 | 8.05 | 8.25 | 30 | 0.63 | (+) (The (+) sign in Table Q signifies desirable increased fold-selectivity of the exemplary compounds over Comparator C) | 30 | 982 | 6.77 | 6.77 | 8.46 | ≥ 9.00 | –
Cc1nccnc1Nc1cc([C@H]2CC[C@@H](OC(=O)NC(C)C)C2)[nH]n1 [Example 2T, (1R,3S)-3-(3-((3-methylpyrazin-2-yl)amino)-1H-pyrazol-5-yl)cyclopentyl isopropylcarbamate] | 7.19 | 37 | 9.07 | 74 | 170 | (+) (The (+) sign in Table Q signifies desirable increased fold-selectivity of the exemplary compounds over Comparator C) | 9.07 | 74 | 170 | 6.82 | 7.28 | 29 | 2.3 | (+) (The (+) sign in Table Q signifies desirable increased fold-selectivity of the exemplary compounds over Comparator C) | 29 | 106 | 5.82 | 5.82 | 6.92 | ≥ 9.00 | increased fold-selectivity CDK1/CDK2 over Comparator C ([2]; Table Q): (+) (The (+) sign in Table Q signifies desirable increased fold-selectivity of the exemplary compounds over Comparator C)
Cc1cnc(Nc2cc([C@H]3CC[C@@H](OC(=O)NC(C)C)C3)[nH]n2)c(C)n1 [Example 2V, (1R,3S)-3-(3-((3,5-dimethylpyrazin-2-yl)amino)-1H-pyrazol-5-y1)cyclopentyl isopropylcarbamate] | 7.44 | 35 | 9.04 | 39 | 280 | (+) (The (+) sign in Table Q signifies desirable increased fold-selectivity of the exemplary compounds over Comparator C) | 9.04 | 39 | 280 | 6.59 | 6.96 | 23 | 0.88 | (+) (The (+) sign in Table Q signifies desirable increased fold-selectivity of the exemplary compounds over Comparator C) | 23 | 50 | 5.60 | 5.60 | 7.01 | ≥ 9.00 | increased fold-selectivity CDK1/CDK2 over Comparator C ([2]; Table Q): (+) (The (+) sign in Table Q signifies desirable increased fold-selectivity of the exemplary compounds over Comparator C)
Cc1nc(C#N)ccc1Nc1cc([C@H]2CC[C@@H](OC(=O)NC(C)C)C2)[nH]n1 [Example 2Z, (1R,3S)-3-(3-((6-cyano-2-methylpyridin-3-yl)amino)-1H-pyrazol-5-yl)cyclopentyl isopropylcarbamate] | 6.26 | – | 8.30 | 110 | 260 | (+) (The (+) sign in Table Q signifies desirable increased fold-selectivity of the exemplary compounds over Comparator C) | 8.30 | 110 | 260 | 5.89 | 6.60 | 72 | 1.6 | (+) (The (+) sign in Table Q signifies desirable increased fold-selectivity of the exemplary compounds over Comparator C) | 72 | 22 | 4.74 | 4.74 | 6.39 | – | increased fold-selectivity CDK1/CDK2 over Comparator C ([2]; Table Q): (+) (The (+) sign in Table Q signifies desirable increased fold-selectivity of the exemplary compounds over Comparator C); improvement in potency against CDK2 (Ki) over Comparator C ([2]; Table Q, in brackets after CDK2 Ki, Comparator C 0.032 μM): 6.4 fold
